Measured values as given in US20030215462A1, “Use of UGT inhibitors to increase bioavailability” (priority 2001, published 2003).
“And” between values parts separate entries of the source, which are not always exact repeats. Equal entries are not always repeated.

How the values were obtained:
[1] = system: T1, UGT enzymes of human liver microsomes; test: Inhibition of 7-HFC glucuronidation in human liver microsomes; format: biochemical; details: for % of control metabolism (SD, n = 3), 7-HFC glucuronidation: 7-HFC 50 μM, human liver microsomes 100 μg/ml, 15 min
T1 construct: percentage of control metabolism, 7-HFC glucuronidation; percentage of control metabolism, 7-HFC glucuronidation

[2] = system: UGT enzymes of pooled human jejunum microsomes; test: Inhibition of raloxifene glucuronidation (G1, G2) in pooled human jejunum microsomes; format: biochemical; details: jejunum HJ61; inhibitor 50 μM
Protocol: Compounds were eluted using a binary solvent gradient system. […] Solvent B was methanol. […] Detection was at 280 nm.
Standardized incubations utilized […] microsomal protein, 1 mM UDPGA and a 30 min incubation time.

[3] = system: UGT enzymes of human liver microsomes; test: Inhibition of estradiol (E2) glucuronidation in human liver microsomes; format: biochemical; details: E2 50 μM
Text: (§1) Compounds were eluted using a binary solvent gradient system where solvent A was dilute phosphoric acid (pH 3) and solvent B was 80:20 acetonitrile-methanol. […] Detection was at 280 nm.

[4] = system: T2, UGT enzymes of human liver microsomes; test: as above; format: biochemical; details: liver 032101, E2 50 μM
T2 construct: residual metabolism (% of control), E2-17-β-D-glucuronide; other: liver 032101; residual metabolism (% of control), E2-17-β-D-glucuronide
Text: as §1

[5] = system: T3, UGT enzymes of human liver microsomes; test: Inhibition of 2ME2 glucuronidation (MG1, MG2) in human liver microsomes; format: biochemical; details: liver 062101, 2ME2 50 μM
T3 construct: other: liver 062101
Text: as §1

[6] = target: T4, UGT1A3 (Homo sapiens, UniProt P35503); test: in vitro
T4 sequence (P35503 29-534): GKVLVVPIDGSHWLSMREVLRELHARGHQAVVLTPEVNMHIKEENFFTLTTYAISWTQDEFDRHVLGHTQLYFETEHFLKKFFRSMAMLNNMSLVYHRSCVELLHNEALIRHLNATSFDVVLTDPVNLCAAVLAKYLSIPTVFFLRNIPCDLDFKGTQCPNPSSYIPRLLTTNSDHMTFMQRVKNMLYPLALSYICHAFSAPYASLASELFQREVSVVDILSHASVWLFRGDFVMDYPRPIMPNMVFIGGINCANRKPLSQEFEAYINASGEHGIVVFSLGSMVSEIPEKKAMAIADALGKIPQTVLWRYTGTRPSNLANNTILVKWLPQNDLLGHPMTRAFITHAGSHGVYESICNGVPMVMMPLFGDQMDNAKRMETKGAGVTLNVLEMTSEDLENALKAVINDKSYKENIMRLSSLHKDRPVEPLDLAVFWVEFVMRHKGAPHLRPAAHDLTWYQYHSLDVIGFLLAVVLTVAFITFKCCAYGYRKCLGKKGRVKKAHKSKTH
Protocol: (§2) Compounds were eluted using a binary solvent gradient system. Solvent A was water brought to pH 8 with NH4OH. Solvent B was methanol. Solvent flow rate was 1 ml/min and the column temperature was maintained at 50° C. Detection was at 280 nm. […] The system was then returned to the initial conditions and equilibrated for 3 min.

[7] = target: T5, UGT1A8 (Homo sapiens, UniProt Q9HAW9); test: in vitro; details: pH 7.5, % of control metabolism
T5 sequence (Q9HAW9 26-530): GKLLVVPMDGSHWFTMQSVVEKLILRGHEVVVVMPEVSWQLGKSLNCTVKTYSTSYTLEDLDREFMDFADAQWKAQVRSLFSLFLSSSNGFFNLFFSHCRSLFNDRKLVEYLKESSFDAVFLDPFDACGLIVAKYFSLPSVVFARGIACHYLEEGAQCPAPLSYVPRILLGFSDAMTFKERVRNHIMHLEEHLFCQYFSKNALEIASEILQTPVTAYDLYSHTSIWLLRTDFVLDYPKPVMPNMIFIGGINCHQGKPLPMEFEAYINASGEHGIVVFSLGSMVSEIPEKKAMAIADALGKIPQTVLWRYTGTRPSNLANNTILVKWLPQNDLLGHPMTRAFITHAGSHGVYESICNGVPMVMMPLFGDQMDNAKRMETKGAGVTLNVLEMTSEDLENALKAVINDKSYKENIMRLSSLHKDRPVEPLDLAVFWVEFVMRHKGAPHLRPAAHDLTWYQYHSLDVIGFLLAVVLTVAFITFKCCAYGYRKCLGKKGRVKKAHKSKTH
Protocol: as §2

[8] = target: T6, UGT1A10 (Homo sapiens, UniProt Q9HAW8); test: in vitro; details: pH 7.5, % of control metabolism
T6 sequence (Q9HAW8 26-530): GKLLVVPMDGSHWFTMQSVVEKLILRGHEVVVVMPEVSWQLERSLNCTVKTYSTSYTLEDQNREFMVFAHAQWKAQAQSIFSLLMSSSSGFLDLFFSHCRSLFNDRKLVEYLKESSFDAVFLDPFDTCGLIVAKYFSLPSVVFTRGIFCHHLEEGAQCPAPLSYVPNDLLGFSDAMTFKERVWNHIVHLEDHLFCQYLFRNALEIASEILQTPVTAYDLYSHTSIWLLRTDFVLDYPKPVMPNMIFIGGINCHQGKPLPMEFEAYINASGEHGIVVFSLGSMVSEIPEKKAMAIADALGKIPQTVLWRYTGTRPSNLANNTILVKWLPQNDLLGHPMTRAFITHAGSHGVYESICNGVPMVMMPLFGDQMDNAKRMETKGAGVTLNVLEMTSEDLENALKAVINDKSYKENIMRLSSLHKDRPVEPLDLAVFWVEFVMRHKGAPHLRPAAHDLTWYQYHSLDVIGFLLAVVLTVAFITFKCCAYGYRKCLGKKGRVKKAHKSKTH
Protocol: as §2

[9] = system: UGT enzymes of human liver microsomes; test: Inhibition of labetalol glucuronidation (LG1, LG2) in human liver microsomes; format: biochemical; details: labetalol 50 μM; inhibitor 500 μM
[10] = pH 7.5, % of control metabolism, raloxifene G1
[11] = pH 7.5, % of control metabolism, raloxifene G2
[12] = pH 7.5, Inhibition of raloxifene glucuronidation, G1, UGT1A3
[13] = pH 7.5, Inhibition of raloxifene glucuronidation, G2, UGT1A3

| SMILES | percentage of control metabolism, 7-HFC glucuronidation ([1]; inhibitor 100 μM) | % of control metabolism (SD, n = 3), 7-HFC glucuronidation ([1]; inhibitor 100 μM) | percentage of control metabolism, 7-HFC glucuronidation ([1]; inhibitor 200 μM) | % of control metabolism (SD, n = 3), 7-HFC glucuronidation ([1]; inhibitor 200 μM) | percentage of control metabolism, 7-HFC glucuronidation ([1]; inhibitor 500 μM) | % of control metabolism (SD, n = 3), 7-HFC glucuronidation ([1]; inhibitor 500 μM) | % of control metabolism, raloxifene G1 [2] | % of control metabolism, raloxifene G2 [2] | residual metabolism (% of control), E2-3-β-D-glucuronide ([3]; liver 062101, inhibitor 50 μM) | residual metabolism (% of control), E2-17-β-D-glucuronide ([3]; liver 062101, inhibitor 50 μM) | residual metabolism (% of control), E2-17-β-D-glucuronide ([4]; inhibitor 50 μM) | residual metabolism (% of control), 2ME2 MG1 ([5]; inhibitor 25 μM) | residual metabolism (% of control), 2ME2 MG2 ([5]; inhibitor 25 μM) | residual metabolism (% of control), 2ME2 MG1 ([5]; inhibitor 50 μM) | residual metabolism (% of control), 2ME2 MG2 ([5]; inhibitor 50 μM) | residual metabolism (% of control), 2ME2 MG2 ([5]; inhibitor 100 μM) | activity at 15 min, 50 µM ([7]; raloxifene G1) [%] | activity at 15 min, 50 µM ([7]; raloxifene G2) [%] | activity at 15 min, 50 µM ([8]; raloxifene G1) [%] | activity at 15 min, 50 µM ([8]; raloxifene G2) [%] | also measured |
| --- | --- | --- | --- | --- | --- | --- | --- | --- | --- | --- | --- | --- | --- | --- | --- | --- | --- | --- | --- | --- | --- |
| O=C(O[C@@H]1Cc2c(O)cc(O)cc2O[C@@H]1c1ccc(O)c(O)c1)c1cc(O)c(O)c(O)c1 [Epicatechin gallate] | 67 (1) % | 67 (1) % | 55 (3) % | 55 (3) % | 10 (1) % | 10 (1) % | 34 (3) % | 40 (3) % | 34 (1) % | 67 (1) % | 83 (0) % | 47 (1) % | 79 (2) % | 33 (1) % | 69 (2) % | 58 (1) % | 71 | 53 | 54 | 51 | residual metabolism (% of control), 2ME2 MG1 ([5]; inhibitor 100 μM): 17 (1) %; activity at 15 min, 50 µM [6, 10]: 57%; activity at 15 min, 50 µM [6, 11]: 42%; activity at 15 min, 50 µM [6, 12]: 57%; activity at 15 min, 50 µM [6, 13]: 42% |
| C=CCc1ccc(O)c(OC)c1 [Eugenol] | – | – | – | – | – | 63 (1) % | 91 (1) % | 96 (5) % | – | – | obs, 94 (5) % | – | – | – | – | 72 (1) % | 107 | 103 | 85 | 81 | residual metabolism (% of control), E2-17-β-D-glucuronide ([4]; inhibitor 100 μM): obs, 89 (6) %; activity at 15 min, 50 µM [6, 10]: 89%; activity at 15 min, 50 µM [6, 11]: 85%; activity at 15 min, 50 µM [6, 12]: 89%; activity at 15 min, 50 µM [6, 13]: 85% |
| O=c1c(O)c(-c2ccc(O)c(O)c2)oc2cc(O)cc(O)c12 [Quercetin] | 58 (1) % | 58 (1) % | 53 (1) % | 53 (1) % | 52 (1) % | 52 (1), % and 62 (1) % | 25 (1) % | 37 (2) % | 30 (1) % | 69 (1) % | 72 (6) % | 63 (3) % | 87 (3) % | 30 (4) % | 68 (3) % | 50 (2) % | 95 | 81 | 55 | 48 | residual metabolism (percentage of control), labetalol LG1 [9]: 36 (3) %; residual metabolism (percentage of control), labetalol LG2 [9]: 23 (1) %; residual metabolism (% of control), E2-3-β-D-glucuronide ([3]; liver 032101, inhibitor 25 μM): 58 (1) %; residual metabolism (% of control), E2-17-β-D-glucuronide ([3]; liver 032101, inhibitor 25 μM): 94 (3) %; residual metabolism (% of control), E2-3-β-D-glucuronide ([3]; liver 062101, inhibitor 25 μM): 56 (3) %; residual metabolism (% of control), E2-17-β-D-glucuronide ([3]; liver 062101, inhibitor 25 μM): 83 (1) %; residual metabolism (% of control), E2-3-β-D-glucuronide ([3]; liver 062101, inhibitor 100 μM): 19 (1) %; residual metabolism (% of control), E2-17-β-D-glucuronide ([3]; liver 062101, inhibitor 100 μM): 57 (2) %; residual metabolism (% of control), E2-17-β-D-glucuronide ([4]; inhibitor 100 μM): 50 (3) %; residual metabolism (% of control), 2ME2 MG1 ([5]; inhibitor 100 μM): 15 (0) %; activity at 15 min, 25 µM ([8]; raloxifene G1): 80%; activity at 15 min, 25 µM ([8]; raloxifene G2): 80% |
